Source: the supplement of paper PMC10307832

Columns and labels:
Experiment in all cases: relative viability (nuclei count vs DMSO), 5 days (fraction); higher = more cells survive
[1] = compound: O=S(=O)(c1ccccc1)N(CC(F)(F)F)c1ccc(C(O)(C(F)(F)F)C(F)(F)F)cc1 + CS(=O)(=O)CCNCc1ccc(-c2ccc3ncnc(Nc4ccc(OCc5cccc(F)c5)c(Cl)c4)c3c2)o1 [Lapatinib] (partner 2 µM)
Outline: (§1)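 For relative viability, nuclei counts in treated wells were divided by those in vehicle wells. Lung cancer cell lines had been pin-tool dosed in 1536-well plates the day after seeding and cultured for 5 days, then fixed and stained in one step (final 0.05% Triton X-100, 1% formaldehyde, 1 ug/ml Hoechst) and imaged at 4×. Doses were one drug alone or a fixed anchor-drug dose plus five library-drug doses (not always all listed) in √10 steps, and values are duplicate-plate medians.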

[2] = compound: C1=CC2=C(C=CC(=C2)C=C3C(=O)NC(=NCC4=CC=CS4)S3)N=C1 [RO-3306] + C[C@]1(O)C[C@@H](c2nc(-c3ccc4ccc(-c5ccccc5)nc4c3)c3c(N)nccn32)C1 [Linsitinib] (partner 1 µM)
Outline: as §1

[3] = compound: C1=CC2=C(C=CC(=C2)C=C3C(=O)NC(=NCC4=CC=CS4)S3)N=C1 [RO-3306] + Cc1nc(Nc2ncc(C(=O)Nc3c(C)cccc3Cl)s2)cc(N2CCN(CCO)CC2)n1 [Dasatinib] (partner 0.075 µM)
Outline: as §1

[4] = compound: O=S(=O)(c1ccccc1)N(CC(F)(F)F)c1ccc(C(O)(C(F)(F)F)C(F)(F)F)cc1 + NC(=O)Nc1cc(-c2cccc(F)c2)sc1C(=O)N[C@H]1CCCNC1 [AZD7762] (partner 0.2 µM)
Outline: as §1

LCLC-97TM1
relative viability ([1]; first compound 0.8 µM): 1.09
relative viability ([1]; first compound 2.53 µM): 0.653
relative viability ([1]; first compound 8 µM): 0.71
relative viability ([2]; first compound 0.03162 µM): 0.167
relative viability ([2]; first compound 0.1 µM): 0.203
relative viability ([2]; first compound 0.3162 µM): 0.202
relative viability ([2]; first compound 1 µM): 0.162
relative viability ([3]; first compound 0.01 µM): 0.792
relative viability ([3]; first compound 0.03162 µM): 0.714
relative viability ([3]; first compound 0.1 µM): 0.929
relative viability ([3]; first compound 0.3162 µM): 0.779
relative viability ([3]; first compound 1 µM): 0.859
relative viability ([4]; first compound 2.53 µM): 0.241
relative viability ([4]; first compound 8 µM): 0.234

NCI-H522
relative viability ([3]; first compound 0.01 µM): 0.895
relative viability ([3]; first compound 0.03162 µM): 0.854
relative viability ([3]; first compound 0.1 µM): 0.82
relative viability ([3]; first compound 0.3162 µM): 0.823
relative viability ([3]; first compound 1 µM): 0.846
relative viability ([4]; first compound 0.8 µM): 1.13
relative viability ([4]; first compound 2.53 µM): 0.824
relative viability ([4]; first compound 8 µM): 0.859

NCI-H1395
relative viability ([1]; first compound 0.8 µM): 1.1
relative viability ([1]; first compound 2.53 µM): 0.993
relative viability ([1]; first compound 8 µM): 1.13
relative viability ([2]; first compound 0.01 µM): 1.1
relative viability ([2]; first compound 0.03162 µM): 0.954
relative viability ([2]; first compound 0.1 µM): 1.06
relative viability ([2]; first compound 0.3162 µM): 1.02
relative viability ([2]; first compound 1 µM): 1.04
relative viability ([3]; first compound 0.01 µM): 0.4
relative viability ([3]; first compound 0.03162 µM): 0.494
relative viability ([3]; first compound 0.1 µM): 0.372
relative viability ([3]; first compound 0.3162 µM): 0.409
relative viability ([3]; first compound 1 µM): 0.587
relative viability ([4]; first compound 0.8 µM): 0.319
relative viability ([4]; first compound 2.53 µM): 0.416
relative viability ([4]; first compound 8 µM): 0.429

LU99A
relative viability ([1]; first compound 0.8 µM): 1.11
relative viability ([1]; first compound 2.53 µM): 1.05
relative viability ([1]; first compound 8 µM): 0.901
relative viability ([2]; first compound 0.01 µM): 0.561
relative viability ([2]; first compound 0.03162 µM): 0.489
relative viability ([2]; first compound 0.1 µM): 0.515
relative viability ([2]; first compound 0.3162 µM): 0.525
relative viability ([2]; first compound 1 µM): 0.495
relative viability ([3]; first compound 0.01 µM): 0.606
relative viability ([3]; first compound 0.03162 µM): 0.581
relative viability ([3]; first compound 0.1 µM): 0.553
relative viability ([3]; first compound 0.3162 µM): 0.507
relative viability ([3]; first compound 1 µM): 0.553
relative viability ([4]; first compound 0.8 µM): 0.459
relative viability ([4]; first compound 2.53 µM): 0.401
relative viability ([4]; first compound 8 µM): 0.318

Calu-6
relative viability ([1]; first compound 0.8 µM): 0.945
relative viability ([1]; first compound 2.53 µM): 0.901
relative viability ([1]; first compound 8 µM): 0.966
relative viability ([2]; first compound 0.01 µM): 1.1
relative viability ([2]; first compound 0.03162 µM): 0.695
relative viability ([2]; first compound 0.1 µM): 0.978
relative viability ([2]; first compound 0.3162 µM): 0.997
relative viability ([2]; first compound 1 µM): 1.15

NCI-H2228
relative viability ([1]; first compound 0.8 µM): 1.32
relative viability ([1]; first compound 2.53 µM): 0.964
relative viability ([1]; first compound 8 µM): 1.5
relative viability ([2]; first compound 0.01 µM): 0.963
relative viability ([2]; first compound 0.03162 µM): 0.529
relative viability ([2]; first compound 0.1 µM): 0.678
relative viability ([2]; first compound 0.3162 µM): 0.655
relative viability ([2]; first compound 1 µM): 0.617
relative viability ([3]; first compound 0.01 µM): 0.569
relative viability ([3]; first compound 0.03162 µM): 0.435
relative viability ([3]; first compound 0.1 µM): 0.47
relative viability ([3]; first compound 0.3162 µM): 0.562
relative viability ([3]; first compound 1 µM): 0.453

NCI-H1915
relative viability ([1]; first compound 0.8 µM): 1.05
relative viability ([1]; first compound 2.53 µM): 0.995
relative viability ([1]; first compound 8 µM): 1.02
relative viability ([2]; first compound 0.01 µM): 1.16
relative viability ([2]; first compound 0.03162 µM): 1.11
relative viability ([2]; first compound 0.1 µM): 1.08
relative viability ([2]; first compound 0.3162 µM): 1.08
relative viability ([2]; first compound 1 µM): 1.07
relative viability ([3]; first compound 0.01 µM): 0.341
relative viability ([3]; first compound 0.03162 µM): 0.312
relative viability ([3]; first compound 0.1 µM): 0.288
relative viability ([3]; first compound 0.3162 µM): 0.329
relative viability ([3]; first compound 1 µM): 0.253
relative viability ([4]; first compound 0.8 µM): 0.712
relative viability ([4]; first compound 2.53 µM): 0.731
relative viability ([4]; first compound 8 µM): 0.682

NCI-H2405
relative viability ([1]; first compound 0.8 µM): 1.01
relative viability ([1]; first compound 2.53 µM): 0.962
relative viability ([1]; first compound 8 µM): 1.15
relative viability ([2]; first compound 0.01 µM): 0.994
relative viability ([2]; first compound 0.03162 µM): 0.873
relative viability ([2]; first compound 0.1 µM): 0.896
relative viability ([2]; first compound 0.3162 µM): 0.921
relative viability ([2]; first compound 1 µM): 0.944
relative viability ([3]; first compound 0.01 µM): 0.199
relative viability ([3]; first compound 0.03162 µM): 0.493
relative viability ([3]; first compound 0.1 µM): 0.173
relative viability ([3]; first compound 0.3162 µM): 0.225
relative viability ([3]; first compound 1 µM): 0.463
relative viability ([4]; first compound 0.8 µM): 0.907
relative viability ([4]; first compound 2.53 µM): 0.665
relative viability ([4]; first compound 8 µM): 0.705

NCI-H661
relative viability ([1]; first compound 0.8 µM): 0.606
relative viability ([1]; first compound 2.53 µM): 0.466
relative viability ([1]; first compound 8 µM): 0.465
relative viability ([2]; first compound 0.01 µM): 0.569
relative viability ([2]; first compound 0.03162 µM): 0.458
relative viability ([2]; first compound 0.1 µM): 0.581
relative viability ([2]; first compound 0.3162 µM): 0.586
relative viability ([2]; first compound 1 µM): 0.728
relative viability ([3]; first compound 0.01 µM): 0.834
relative viability ([3]; first compound 0.03162 µM): 0.769
relative viability ([3]; first compound 0.1 µM): 0.828
relative viability ([3]; first compound 0.3162 µM): 0.814
relative viability ([3]; first compound 1 µM): 0.799

EPLC-272H
relative viability ([1]; first compound 0.8 µM): 1.05
relative viability ([1]; first compound 2.53 µM): 0.818
relative viability ([1]; first compound 8 µM): 0.924
relative viability ([2]; first compound 0.01 µM): 1.2
relative viability ([2]; first compound 0.03162 µM): 0.768
relative viability ([2]; first compound 0.1 µM): 1.24
relative viability ([2]; first compound 0.3162 µM): 1.04
relative viability ([2]; first compound 1 µM): 0.96
relative viability ([3]; first compound 0.01 µM): 0.365
relative viability ([3]; first compound 0.03162 µM): 0.193
relative viability ([3]; first compound 0.1 µM): 0.384
relative viability ([3]; first compound 0.3162 µM): 0.237
relative viability ([3]; first compound 1 µM): 0.299
relative viability ([4]; first compound 0.8 µM): 0.226
relative viability ([4]; first compound 2.53 µM): 0.203
relative viability ([4]; first compound 8 µM): 0.203

NCI-H2023
relative viability ([1]; first compound 0.8 µM): 0.742
relative viability ([1]; first compound 2.53 µM): 0.743
relative viability ([1]; first compound 8 µM): 0.55
relative viability ([2]; first compound 0.01 µM): 0.607
relative viability ([2]; first compound 0.03162 µM): 0.566
relative viability ([2]; first compound 0.1 µM): 0.637
relative viability ([2]; first compound 0.3162 µM): 0.798
relative viability ([2]; first compound 1 µM): 0.585
relative viability ([3]; first compound 0.01 µM): 0.742
relative viability ([3]; first compound 0.03162 µM): 0.47
relative viability ([3]; first compound 0.1 µM): 0.496
relative viability ([3]; first compound 0.3162 µM): 0.598
relative viability ([3]; first compound 1 µM): 0.518

NCI-H1299
relative viability ([1]; first compound 0.8 µM): 0.923
relative viability ([1]; first compound 2.53 µM): 0.952
relative viability ([1]; first compound 8 µM): 0.879
relative viability ([2]; first compound 0.01 µM): 1.1
relative viability ([2]; first compound 0.03162 µM): 0.913
relative viability ([2]; first compound 0.1 µM): 1.03
relative viability ([2]; first compound 0.3162 µM): 1.12
relative viability ([2]; first compound 1 µM): 1.08
